Laboratory results as given in publication PMC6199744, “Development of Chemical Proteomics for the Folateome and Analysis of the Kinetoplastid Folateome” (ACS Infectious Diseases, 2018).
Like-named read-outs stand apart in the source and are kept apart here.

What was measured:
Type in all cases: binding
[1] = biological target: T1, HeLa cell extract proteins (Homo sapiens, UniProt O60313)
T1 construct: endogenous in cells; host or cells: HeLa cell extract
T1 sequence (O60313 88-960): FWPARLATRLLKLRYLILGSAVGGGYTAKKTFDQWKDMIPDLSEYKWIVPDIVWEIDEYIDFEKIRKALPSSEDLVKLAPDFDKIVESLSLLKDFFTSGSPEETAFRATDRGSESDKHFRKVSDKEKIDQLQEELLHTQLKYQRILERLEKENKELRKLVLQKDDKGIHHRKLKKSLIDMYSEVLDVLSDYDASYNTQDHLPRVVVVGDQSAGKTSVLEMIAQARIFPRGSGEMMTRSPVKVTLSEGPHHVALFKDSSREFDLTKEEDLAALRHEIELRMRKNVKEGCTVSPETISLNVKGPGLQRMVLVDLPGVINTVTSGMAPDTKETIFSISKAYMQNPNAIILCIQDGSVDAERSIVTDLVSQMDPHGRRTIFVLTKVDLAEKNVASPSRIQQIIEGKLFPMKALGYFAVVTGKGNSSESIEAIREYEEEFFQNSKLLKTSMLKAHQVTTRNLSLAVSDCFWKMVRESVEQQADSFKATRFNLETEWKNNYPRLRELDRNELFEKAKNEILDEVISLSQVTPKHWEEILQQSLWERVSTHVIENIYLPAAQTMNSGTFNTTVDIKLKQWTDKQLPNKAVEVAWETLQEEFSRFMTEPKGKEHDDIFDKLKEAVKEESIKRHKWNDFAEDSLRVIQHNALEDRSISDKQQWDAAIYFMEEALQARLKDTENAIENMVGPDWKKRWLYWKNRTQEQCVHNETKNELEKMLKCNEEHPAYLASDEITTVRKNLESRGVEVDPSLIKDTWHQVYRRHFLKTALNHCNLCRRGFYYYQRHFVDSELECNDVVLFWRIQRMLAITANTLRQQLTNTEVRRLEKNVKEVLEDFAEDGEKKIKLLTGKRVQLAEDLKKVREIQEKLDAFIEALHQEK

[2] = biological target: T2, HeLa cell extract proteins (Homo sapiens, UniProt O95816)
T2 construct: endogenous in cells; host or cells: HeLa cell extract
T2 sequence (O95816 whole entry): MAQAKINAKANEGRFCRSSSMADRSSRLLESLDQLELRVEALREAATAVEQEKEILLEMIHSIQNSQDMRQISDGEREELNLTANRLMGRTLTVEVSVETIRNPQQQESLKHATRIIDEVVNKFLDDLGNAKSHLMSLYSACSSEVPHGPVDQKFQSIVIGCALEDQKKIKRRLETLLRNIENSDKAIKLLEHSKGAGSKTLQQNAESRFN

[3] = biological target: T3, HeLa cell extract proteins (Homo sapiens, UniProt P00441)
T3 construct: endogenous in cells; host or cells: HeLa cell extract
T3 sequence (P00441 whole entry): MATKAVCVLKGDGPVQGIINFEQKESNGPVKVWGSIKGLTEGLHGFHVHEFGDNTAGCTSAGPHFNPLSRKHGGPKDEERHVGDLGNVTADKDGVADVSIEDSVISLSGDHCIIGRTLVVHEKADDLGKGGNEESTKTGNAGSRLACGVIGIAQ

[4] = biological target: T4, HeLa cell extract proteins (Homo sapiens, UniProt P14618)
T4 construct: endogenous in cells; host or cells: HeLa cell extract
T4 sequence (P14618 whole entry): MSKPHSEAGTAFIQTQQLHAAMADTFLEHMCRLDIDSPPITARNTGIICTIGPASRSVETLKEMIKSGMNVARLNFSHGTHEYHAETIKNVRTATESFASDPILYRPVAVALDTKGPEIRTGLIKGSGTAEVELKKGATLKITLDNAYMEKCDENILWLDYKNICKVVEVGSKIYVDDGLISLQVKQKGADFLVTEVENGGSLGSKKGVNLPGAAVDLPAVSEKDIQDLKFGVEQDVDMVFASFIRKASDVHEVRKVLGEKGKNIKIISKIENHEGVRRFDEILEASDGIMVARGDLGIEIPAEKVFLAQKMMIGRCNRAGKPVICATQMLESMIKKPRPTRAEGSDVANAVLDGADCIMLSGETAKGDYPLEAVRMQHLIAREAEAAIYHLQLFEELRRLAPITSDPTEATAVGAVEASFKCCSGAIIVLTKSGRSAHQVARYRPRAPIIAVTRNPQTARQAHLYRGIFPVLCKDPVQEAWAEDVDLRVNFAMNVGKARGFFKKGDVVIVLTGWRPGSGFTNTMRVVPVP

[5] = biological target: T5, HeLa cell extract proteins (Homo sapiens, UniProt P37837)
T5 construct: endogenous in cells; host or cells: HeLa cell extract
T5 sequence (P37837 1-337): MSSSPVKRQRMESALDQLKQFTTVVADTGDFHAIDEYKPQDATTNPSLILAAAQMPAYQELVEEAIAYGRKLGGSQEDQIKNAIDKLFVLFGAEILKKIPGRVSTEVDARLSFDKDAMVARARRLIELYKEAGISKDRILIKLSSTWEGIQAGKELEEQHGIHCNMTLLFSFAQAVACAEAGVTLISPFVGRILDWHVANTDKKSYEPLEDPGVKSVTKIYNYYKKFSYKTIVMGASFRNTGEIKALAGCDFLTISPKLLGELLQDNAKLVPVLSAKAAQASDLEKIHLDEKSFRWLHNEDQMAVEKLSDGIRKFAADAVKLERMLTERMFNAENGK

[6] = biological target: T6, HeLa cell extract proteins (Homo sapiens, UniProt Q96CN7)
T6 construct: endogenous in cells; host or cells: HeLa cell extract
T6 sequence (Q96CN7 1-298): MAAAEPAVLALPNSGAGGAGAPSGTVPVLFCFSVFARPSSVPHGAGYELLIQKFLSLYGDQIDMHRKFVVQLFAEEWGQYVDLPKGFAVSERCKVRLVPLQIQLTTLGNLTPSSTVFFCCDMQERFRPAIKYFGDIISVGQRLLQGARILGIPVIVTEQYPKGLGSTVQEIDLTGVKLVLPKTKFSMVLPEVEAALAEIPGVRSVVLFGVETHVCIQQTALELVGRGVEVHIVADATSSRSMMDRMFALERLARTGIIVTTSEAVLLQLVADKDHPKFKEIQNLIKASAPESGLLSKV

[7] = biological target: T7, HeLa cell extract proteins (Homo sapiens, UniProt Q9H2U1)
T7 construct: endogenous in cells; host or cells: HeLa cell extract
T7 sequence (Q9H2U1 1-1008): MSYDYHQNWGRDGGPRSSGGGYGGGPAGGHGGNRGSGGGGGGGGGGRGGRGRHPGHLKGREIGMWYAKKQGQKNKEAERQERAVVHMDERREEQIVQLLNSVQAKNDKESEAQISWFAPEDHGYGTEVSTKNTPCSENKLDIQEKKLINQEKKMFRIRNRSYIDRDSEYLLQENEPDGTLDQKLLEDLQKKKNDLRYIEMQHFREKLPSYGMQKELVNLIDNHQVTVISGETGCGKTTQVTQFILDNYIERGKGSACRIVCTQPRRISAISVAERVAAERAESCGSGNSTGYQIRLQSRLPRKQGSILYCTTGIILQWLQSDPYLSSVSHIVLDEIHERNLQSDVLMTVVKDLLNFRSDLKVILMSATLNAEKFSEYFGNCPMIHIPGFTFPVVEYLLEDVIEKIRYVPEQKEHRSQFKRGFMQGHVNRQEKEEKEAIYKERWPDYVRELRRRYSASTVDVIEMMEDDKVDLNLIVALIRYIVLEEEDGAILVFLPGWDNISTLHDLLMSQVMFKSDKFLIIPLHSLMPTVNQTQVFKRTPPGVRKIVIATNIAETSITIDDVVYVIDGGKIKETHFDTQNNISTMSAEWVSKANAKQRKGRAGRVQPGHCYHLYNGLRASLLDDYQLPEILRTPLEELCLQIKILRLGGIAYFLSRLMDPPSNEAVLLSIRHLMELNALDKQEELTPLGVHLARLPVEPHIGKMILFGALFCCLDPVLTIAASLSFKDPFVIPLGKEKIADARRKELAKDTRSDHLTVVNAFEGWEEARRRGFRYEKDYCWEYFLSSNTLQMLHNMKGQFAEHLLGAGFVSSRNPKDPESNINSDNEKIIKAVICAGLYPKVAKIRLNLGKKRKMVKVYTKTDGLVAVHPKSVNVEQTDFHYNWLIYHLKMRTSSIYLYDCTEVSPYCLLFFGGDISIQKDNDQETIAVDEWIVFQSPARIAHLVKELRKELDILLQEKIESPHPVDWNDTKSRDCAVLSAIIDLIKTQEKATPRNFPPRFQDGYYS

[8] = HeLa, protein DHX36 (ISOFORM 1 OF PROBABLE ATP-DEPENDENT RNA HELICASE DHX36)
[9] = HeLa, protein PKM2 (CDNA FLJ56065, HIGHLY SIMILAR TO PYRUVATE KINASE ISOZYME M1.)
[10] = HeLa, protein TALDO1 (TRANSALDOLASE.)

Nc1nc2c(c(=O)[nH]1)N(C=O)C(CNc1ccc(C(=O)N[C@@H](CCC(=O)O)C(=O)O)cc1)CN2 (stereo partly shown) [LEU, leucovorin]
fold changes relative to vehicle control ([1]; HeLa, protein OPA1): 0.88 | fold changes relative to vehicle control ([2]; HeLa, protein BAG2): 0.96 | fold changes relative to vehicle control ([3]; HeLa, protein SOD1): 1.01 | fold changes relative to vehicle control ([4]; HeLa, protein PKM2): 1.03 | fold changes relative to vehicle control ([5]; protein TALDO1, HeLa): 0.88 | fold changes relative to vehicle control ([6]; HeLa, captured protein ISOC1): 1.09 | fold changes relative to vehicle control [7, 8]: 1.12

Nc1nc2[nH]cc(CCc3ccc(C(=O)N[C@@H](CCC(=O)O)C(=O)O)cc3)c2c(=O)[nH]1 [PTX, pemetrexed]
fold changes relative to vehicle control [1]: 0.84 | fold changes relative to vehicle control [2]: 0.95 | fold changes relative to vehicle control [3]: 1.22 | fold changes relative to vehicle control [4]: 1.09 | fold changes relative to vehicle control [5]: 1.04 | fold changes relative to vehicle control [6]: 0.99 | fold changes relative to vehicle control [7]: 0.99

CCCCCCOc1ccc(Cc2cnc(N)nc2N)cc1 [compound 1]
fold changes relative to vehicle control ([1]; HeLa, protein OPA1): 0.82 | fold changes relative to vehicle control ([2]; captured protein BAG2, HeLa): 0.9 | fold changes relative to vehicle control ([3]; protein SOD1, HeLa): 1.47 | fold changes relative to vehicle control [4, 9]: 1.45 fold | fold changes relative to vehicle control [5, 10]: 1.32 fold | fold changes relative to vehicle control ([6]; protein ISOC1, HeLa): 1.08 | fold changes relative to vehicle control ([7]; protein DHX36, HeLa): 1.17

CCCCCCOc1cccc(Cc2cnc(N)nc2N)c1 [compound 2]
fold changes relative to vehicle control ([1]; HeLa, protein OPA1): 1.02 | fold changes relative to vehicle control ([2]; captured protein BAG2, HeLa): 1.15 | fold changes relative to vehicle control ([3]; protein SOD1, HeLa): 2.11 | fold changes relative to vehicle control [4, 9]: 2.57 fold | fold changes relative to vehicle control [5, 10]: 2.2 fold | fold changes relative to vehicle control ([6]; protein ISOC1, HeLa): 1.01 | fold changes relative to vehicle control ([7]; protein DHX36, HeLa): 0.91

Nc1nc2cccc(-c3ccccc3)c2n1Cc1ccc(Cl)c(Cl)c1 [compound 3]
fold changes relative to vehicle control ([1]; HeLa, protein OPA1): 1.01 | fold changes relative to vehicle control ([2]; captured protein BAG2, HeLa): 0.88 | fold changes relative to vehicle control ([3]; protein SOD1, HeLa): 0.8 | fold changes relative to vehicle control [4, 9]: 0.99 fold | fold changes relative to vehicle control [5, 10]: 0.83 fold | fold changes relative to vehicle control ([6]; protein ISOC1, HeLa): 1.03 | fold changes relative to vehicle control ([7]; protein DHX36, HeLa): 0.98

NCCOCCOCC(=O)Nc1nc2ncc(CNc3ccc(C(=O)NC(CCC(=O)O)C(=O)O)cc3)nc2c(=O)[nH]1 (stereo not shown) [compound 6]
fold changes relative to vehicle control ([1]; HeLa, protein OPA1): 0.87 | fold changes relative to vehicle control ([2]; HeLa, protein BAG2): 0.97 | fold changes relative to vehicle control ([3]; HeLa, protein SOD1): 1.44 | fold changes relative to vehicle control ([4]; HeLa, protein PKM2): 1.29 | fold changes relative to vehicle control ([5]; protein TALDO1, HeLa): 1.22 | fold changes relative to vehicle control ([6]; HeLa, captured protein ISOC1): 1.11 | fold changes relative to vehicle control [7, 8]: 1.07

NCCCNc1ccc(C(=O)NC(CCC(=O)O)C(=O)O)cc1 (stereo not shown) [compound 7]
fold changes relative to vehicle control ([1]; HeLa, protein OPA1): 0.94 | fold changes relative to vehicle control ([2]; HeLa, protein BAG2): 0.97 | fold changes relative to vehicle control ([3]; HeLa, protein SOD1): 1.08 | fold changes relative to vehicle control ([4]; HeLa, protein PKM2): 0.94 | fold changes relative to vehicle control ([5]; protein TALDO1, HeLa): 0.92 | fold changes relative to vehicle control ([6]; HeLa, captured protein ISOC1): 1.04 | fold changes relative to vehicle control [7, 8]: 1.03
